Patent US9802918B2, “Pyridineamine compounds useful as Pim kinase inhibitors” (Incyte Corporation, priority 2015, dated 2017)
pIC50: −log10 of the molar value.

What was measured:
Type in all cases: biochemical
Pim-2 = Pim-2 (Homo sapiens (Human), UniProt Q9P1W9); test: Pim-2 kinase assay; conditions: 1 mM ATP; read-out: Pim2 IC50
Summary of the method: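 Pim-2 (1 nM) with fluorescein-CREBtide ([…]) and 1 mM ATP in Tris pH 7.5, MgCl2, DTT buffer, 2 h at 25 °C. Stopped with EDTA plus Tb-anti-CREB pSer133 antibody; phosphorylation read by TR-FRET after 30 min.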

Pim-3 = Pim-3 (Homo sapiens (Human), UniProt Q86V86); test: Pim-3 kinase assay; conditions: 1 mM ATP; read-out: Pim3 IC50
Summary of the method: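 Human Pim-3 at 1.25 pM phosphorylated […] biotin-BAD peptide with 1 mM ATP for 1 h at 25° C, in pH 7.5 Tris buffer with 5 mM MgCl2 and 5 mM DTT. Reactions were stopped with EDTA buffer containing phospho-Bad (Ser112) antibody and AlphaScreen donor/acceptor beads. Plates were read after 1 h dark incubation at room temperature.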

Pim-1 = Pim-1 (Homo sapiens (Human), UniProt P11309); test: Pim-1 kinase assay; conditions: 1 mM ATP; read-out: Pim1 IC50
Chain of Pim-1 (P11309 whole entry): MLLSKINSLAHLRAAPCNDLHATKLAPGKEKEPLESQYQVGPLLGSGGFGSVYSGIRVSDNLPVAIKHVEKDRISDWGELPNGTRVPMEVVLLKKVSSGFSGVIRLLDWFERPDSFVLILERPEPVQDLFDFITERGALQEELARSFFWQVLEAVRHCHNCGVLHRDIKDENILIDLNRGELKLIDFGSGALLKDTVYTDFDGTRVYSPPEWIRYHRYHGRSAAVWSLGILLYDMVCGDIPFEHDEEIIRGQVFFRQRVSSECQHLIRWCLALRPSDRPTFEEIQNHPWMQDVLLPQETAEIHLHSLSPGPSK
Procedure: Supplementation of the STOP buffer with beads and stopping the reactions were done under reduced light. Prior to the stopping reactions STOP buffer with beads was preincubated for 1 h in the dark at room temperature. After stopping the reactions, plates were incubated for 1 h in the dark at room temperature before reading on a PHERAstar FS plate reader (BMG Labtech) under reduced light.

Chain of Pim-2 (Q9P1W9 whole entry): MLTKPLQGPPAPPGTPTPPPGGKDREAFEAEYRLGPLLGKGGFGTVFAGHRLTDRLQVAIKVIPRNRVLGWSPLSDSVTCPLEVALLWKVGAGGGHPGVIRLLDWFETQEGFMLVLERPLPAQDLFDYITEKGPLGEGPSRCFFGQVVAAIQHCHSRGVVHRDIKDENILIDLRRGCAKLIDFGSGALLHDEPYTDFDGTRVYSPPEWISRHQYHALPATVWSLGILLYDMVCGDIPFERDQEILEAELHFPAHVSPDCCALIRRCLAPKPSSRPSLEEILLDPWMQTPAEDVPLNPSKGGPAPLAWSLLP

Compound	pIC50 (Pim-2)	pIC50 (Pim-3)	pIC50 (Pim-1)
C[C@@H]1C[C@H](N)C[C@H](c2ccncc2NCc2ccc(F)c(-c3c(F)cccc3F)n2)C1 [Example 66, 4-[(1R,3S,5S)-3-Amino-5-methylcyclohexyl]-N-{[6-(2,6-difluorophenyl)-5-fluoropyridin-2-yl]methyl}pyridin-3-amine]	6.00 to 7.00	≥ 8.00	> 8.00
C[C@@H]1C[C@H](N)C[C@H](c2ccncc2NCc2ccc(F)c(-c3c(F)cc(C4(O)CCC4)cc3F)n2)C1 [Example 67, 1-(4-{6-[({4-[(1R,3S,5S)-3-Amino-5-methylcyclohexyl]pyridin-3-yl}amino)methyl]-3-fluoropyridin-2-yl}-3,5-difluorophenyl)cyclobutanol]	6.00 to 7.00	≥ 8.00	> 8.00
C[C@@H]1C[C@H](N)C[C@H](c2ccncc2NCc2ccc(F)c(-c3c(F)cc(N4CCOCC4)cc3F)n2)C1 [Example 68, 4-[(1R,3S,5S)-3-Amino-5-methylcyclohexyl]-N-{[6-(2,6-difluoro-4-morpholin-4-ylphenyl)-5-fluoropyridin-2-yl]methyl}pyridin-3-amine]	6.00 to 7.00	≥ 8.00	> 8.00
C[C@@H]1C[C@H](N)CN(c2ccncc2NCc2nc(-c3c(F)cccc3F)sc2N)C1 [Example 69, N-{[5-Amino-2-(2,6-difluorophenyl)-1,3-thiazol-4-yl]methyl}-4-[(3S,5R)-3-amino-5-methylpiperidin-1-yl]pyridin-3-amine]	5.00 to 6.00	≥ 8.00	> 8.00
C[C@@H]1C[C@H](N)CN(c2ccncc2NCc2ccc(F)c(-c3c(F)cc(N4CC[C@@H](F)C4)cc3F)n2)C1 [Example 70, 4-[(3S,5R)-3-Amino-5-methylpiperidin-1-yl]-N-[(6-{2,6-difluoro-4-[(3R)-3-fluoropyrrolidin-1-yl]phenyl}-5-fluoropyridin-2-yl)methyl]pyridin-3-amine]	6.00 to 7.00	≥ 8.00	> 8.00
C[C@@H]1C[C@H](N)CN(c2ccncc2NCc2ccc(F)c(-c3c(F)cc(N4CCCC(F)C4)cc3F)n2)C1 (stereo partly drawn) [Example 71, 4-[(3S,5R)-3-Amino-5-methylpiperidin-1-yl]-N-({6-[2,6-difluoro-4-(3-fluoropiperidin-1-yl)phenyl]-5-fluoropyridin-2-yl}methyl)pyridin-3-amine]	≥ 7.00	≥ 8.00	> 8.00
C[C@@H]1C[C@H](N)CN(c2ccncc2NCc2ccc(F)c(-c3c(F)cc(N4CC(C)(O)C4)cc3F)n2)C1 [Example 72, 1-(4-{6-[({4-[(3S,5R)-3-Amino-5-methylpiperidin-1-yl]pyridin-3-yl}amino)methyl]-3-fluoropyridin-2-yl}-3,5-difluorophenyl)-3-methylazetidin-3-ol]	≥ 7.00	≥ 8.00	> 8.00
C[C@H]1CN(c2ccncc2NCc2ccc(F)c(-c3c(F)cc(O[C@@H]4CCOC4)cc3F)n2)C[C@@H](N)[C@@H]1O [Example 73, (3R,4R,5S)-3-Amino-1-(3-{[(6-{2,6-difluoro-4-[(3R)-tetrahydrofuran-3-yloxy]phenyl}-5-fluoropyridin-2-yl)methyl]amino}pyridin-4-yl)-5-methylpiperidin-4-ol]	≥ 7.00	≥ 8.00	> 8.00
C[C@@H]1C[C@H](N)CN(c2ccncc2NCc2ccc(F)c(-c3c(F)cc(O[C@@H]4CCOC4)cc3F)n2)C1 [Example 74, 4-[(3S,5R)-3-Amino-5-methylpiperidin-1-yl]-N-[(6-{2,6-difluoro-4-[(3R)-tetrahydrofuran-3-yloxy]phenyl}-5-fluoropyridin-2-yl)methyl]pyridin-3-amine]	≥ 7.00	≥ 8.00	> 8.00
C[C@H]1CN(c2ccncc2NCc2ccc(F)c(-c3c(F)cc(O[C@H]4CCOC4)cc3F)n2)C[C@@H](N)[C@@H]1O [Example 75, (3R,4R,5S)-3-Amino-1-(3-{[(6-{2,6-difluoro-4-[(3S)-tetrahydrofuran-3-yloxy]phenyl}-5-fluoropyridin-2-yl)methyl]amino}pyridin-4-yl)-5-methylpiperidin-4-ol]	≥ 7.00	≥ 8.00	> 8.00
C[C@@H]1C[C@H](N)CN(c2ccncc2NCc2ccc(F)c(-c3c(F)cc(O[C@H]4CCOC4)cc3F)n2)C1 [Example 76, 4-[(3S,5R)-3-Amino-5-methylpiperidin-1-yl]-N-[(6-{2,6-difluoro-4-[(3S)-tetrahydrofuran-3-yloxy]phenyl}-5-fluoropyridin-2-yl)methyl]pyridin-3-amine]	≥ 7.00	≥ 8.00	> 8.00
C[C@H]1CN(c2ccncc2NCc2ccc(F)c(-c3c(F)cc(OC4CCOCC4)cc3F)n2)C[C@@H](N)[C@@H]1O [Example 77, (3R,4R,5S)-3-Amino-1-{3-[({6-[2,6-difluoro-4-(tetrahydro-2H-pyran-4-yloxy)phenyl]-5-fluoropyridin-2-yl}methyl)amino]pyridin-4-yl}-5-methylpiperidin-4-ol]	≥ 7.00	≥ 8.00	> 8.00
C[C@@H]1C[C@H](N)CN(c2ccncc2NCc2ccc(F)c(-c3c(F)cc(OC4CCOCC4)cc3F)n2)C1 [Example 78, 4-[(3S,5R)-3-Amino-5-methylpiperidin-1-yl]-N-({6-[2,6-difluoro-4-(tetrahydro-2H-pyran-4-yloxy)phenyl]-5-fluoropyridin-2-yl}methyl)pyridin-3-amine]	≥ 7.00	≥ 8.00	> 8.00
COc1cc(F)c(-c2nc(CNc3cnccc3N3C[C@@H](N)[C@H](O)[C@@H](C)C3)ccc2F)c(F)c1 [Example 82, (3R,4R,5S)-3-Amino-1-[3-({[6-(2,6-difluoro-4-methoxyphenyl)-5-fluoropyridin-2-yl]methyl}amino)pyridin-4-yl]-5-methylpiperidin-4-ol]	≥ 7.00	≥ 8.00	> 8.00
COc1cc(F)c(-c2nc(CNc3cnccc3N3C[C@H](C)C[C@H](N)C3)ccc2F)c(F)c1 [Example 83, 4-[(3S,5R)-3-Amino-5-methylpiperidin-1-yl]-N-{[6-(2,6-difluoro-4-methoxyphenyl)-5-fluoropyridin-2-yl]methyl}pyridin-3-amine]	≥ 7.00	≥ 8.00	> 8.00
C[C@@H]1C[C@H](N)CN(c2ccncc2NCc2ccc(F)c(-c3ccc(C#N)cc3F)n2)C1 [Example 84, 4-{6-[({4-[(3S,5R)-3-Amino-5-methylpiperidin-1-yl]pyridin-3-yl}amino)methyl]-3-fluoropyridin-2-yl}-3-fluorobenzonitrile]	6.00 to 7.00	≥ 8.00	> 8.00
C[C@@H]1C[C@H](N)CN(c2ccncc2NCc2ccc(F)c(-c3ccc4sccc4c3)n2)C1 [Example 85, 4-[(3S,5R)-3-Amino-5-methylpiperidin-1-yl]-N-{[6-(1-benzothien-5-yl)-5-fluoropyridin-2-yl]methyl}pyridin-3-amine]	6.00 to 7.00	≥ 8.00	> 8.00
C[C@@H]1C[C@H](N)CN(c2ccncc2NCc2ccc(F)c(-c3ccc4c(c3)NC(=O)C4)n2)C1 [Example 86, 6-{6-[({4-[(3S,5R)-3-Amino-5-methylpiperidin-1-yl]pyridin-3-yl}amino)methyl]-3-fluoropyridin-2-yl}-1,3-dihydro-2H-indol-2-one]	6.00 to 7.00	≥ 8.00	> 8.00
C[C@H]1CN(c2c(NCc3ccc(F)c(-c4c(F)cccc4F)n3)cnc3c2CCO3)C[C@@H](N)[C@@H]1O [Example 88, (3R,4R,5S)-3-Amino-1-[5-({[6-(2,6-difluorophenyl)-5-fluoropyridin-2-yl]methyl}amino)-2,3-dihydrofuro[2,3-b]pyridin-4-yl]-5-methylpiperidin-4-ol]	5.00 to 6.00	≥ 8.00	> 8.00
C[C@@H]1C[C@H](N)CN(c2c(NCc3ccc(F)c(-c4c(F)cccc4F)n3)cnc3c2CCC3)C1 [Example 89, 4-[(3S,5R)-3-Amino-5-methylpiperidin-1-yl]-N-{[6-(2,6-difluorophenyl)-5-fluoropyridin-2-yl]methyl}-6,7-dihydro-5H-cyclopenta[b]pyridin-3-amine]	6.00 to 7.00	≥ 8.00	> 8.00
N[C@@H]1CN(c2ccncc2NCc2ccc(F)c(-c3c(F)cccc3F)n2)CC[C@H]1F [Example 90, 4-[(3R,4R)-3-Amino-4-fluoropiperidin-1-yl]-N-{[6-(2,6-difluorophenyl)-5-fluoropyridin-2-yl]methyl}pyridin-3-amine]	5.00 to 6.00	≥ 8.00	> 8.00
C[C@@H]1C[C@H](N)CN(c2ccncc2NCc2ccc3ccc(-c4ccc5c(c4)OCC5)cc3n2)C1 [Example 91, 4-[(3S,5R)-3-Amino-5-methylpiperidin-1-yl]-N-{[7-(2,3-dihydro-1-benzofuran-6-yl)quinolin-2-yl]methyl}pyridin-3-amine]	6.00 to 7.00	≥ 8.00	> 8.00
C[C@@H]1C[C@H](N)CN(c2ccncc2NCc2ccc3ccc(-c4ccn5ccnc5c4)cc3n2)C1 [Example 92, 4-[(3S,5R)-3-Amino-5-methylpiperidin-1-yl]-N-[(7-imidazo[1,2-a]pyridin-7-ylquinolin-2-yl)methyl]pyridin-3-amine]	6.00 to 7.00	≥ 8.00	> 8.00
